These results are taken from paper PMC10146204, “Inhibition of Acetylcholinesterase by Novel Lupinine Derivatives” (Molecules, 2023).

For data set [1], the target named is T1, AChE (Homo sapiens, UniProt P22303).
T1 construct: purchased Sigma-Aldrich Chemical Co
Nature of the data set: biochemical. Format: biochemical. To be noted: for Observed class for AChE inhibitory activity: Experimentally determined class, Active or NA. An excerpt:
The kit is based on an improved Ellman method, whereby thiocholine produced from AChE activity forms a yellow color with 5,5′-dithiobis(2-nitrobenzoic acid), and the intensity the color (412 nm) is proportional to the enzyme activity.

Data set [2] concerns human THP-1 monocytic cells. Nature of the data set: Cytotoxicity assay (CellTiter-Glo Luminescent Cell Viability Assay). To be noted: THP-1 cells, concentrations up to 50 μM, 24 h. Format: cell-based. As to the method: The cytotoxicity of the synthesized compounds was analyzed using a CellTiter-Glo Luminescent Cell Viability Assay Kit (Promega, Madison, WI, USA) according to the manufacturer’s protocol. Human THP-1 monocytic cells obtained from ATCC (Manassas, VA, USA) were cultured in RPMI 1640 medium (Mediatech Inc., Herndon, VA, USA) supplemented with 10% (v/v) FBS, 100 μg/mL streptomycin, and 100 U/mL penicillin. For the cytotoxicity assay, the cells were cultured at a density of 10^4 cells/well with different concentrations of the test compounds added ([…], 12.5, 25, 50 μM; final concentration of DMSO was 1%) for 24 h at 37 °C and 5% CO2. Following treatment, substrate was added to the cells, and the samples were analyzed with a Fluoroscan Ascent FL microplate reader.

The target of data set [3] is T1, AChE. As to conditions: previously reported AChE inhibitors with a 4-benzyloxyphenyl moiety; ref [36],[37],[38]; read-out: AChE inhibitory activity IC50 of previously reported inhibitors; cited from earlier work.
[4] abbreviates: N.A.: no activity was observed at the highest concentration tested (150 µM), 5–7 tested concentrations, read-out: AChE inhibitory activity IC50.

Entries after “also recorded” stand apart in the source; their conditions may differ. Like-named read-outs stand apart in the source and are kept apart here.

As usually defined, the IC50 is the concentration that inhibits the measured activity by half.

T1 sequence (P22303 32-614): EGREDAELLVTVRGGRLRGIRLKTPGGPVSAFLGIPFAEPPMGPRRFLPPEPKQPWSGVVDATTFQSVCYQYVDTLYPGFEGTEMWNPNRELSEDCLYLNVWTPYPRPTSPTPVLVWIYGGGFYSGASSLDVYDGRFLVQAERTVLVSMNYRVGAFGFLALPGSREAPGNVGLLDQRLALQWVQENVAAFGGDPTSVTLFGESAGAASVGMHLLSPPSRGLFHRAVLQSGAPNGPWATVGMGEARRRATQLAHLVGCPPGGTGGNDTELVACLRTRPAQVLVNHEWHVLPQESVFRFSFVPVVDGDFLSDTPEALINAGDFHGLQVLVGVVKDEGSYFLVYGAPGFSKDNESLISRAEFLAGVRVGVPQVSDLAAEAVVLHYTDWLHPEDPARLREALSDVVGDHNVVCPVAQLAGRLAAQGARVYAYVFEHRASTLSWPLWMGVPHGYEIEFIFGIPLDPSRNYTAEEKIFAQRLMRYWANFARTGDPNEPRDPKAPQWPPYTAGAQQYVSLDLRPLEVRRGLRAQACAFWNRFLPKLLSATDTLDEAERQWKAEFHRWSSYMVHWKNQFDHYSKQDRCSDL

`O=C(Nc1ccc(Cl)c(Cl)c1)OC[C@@H]1CCCN2CCCC[C@H]12` [Compound 41] returned an IC50 at AChE [1] of 99.4 ± 12.3 µM.
As for `Cc1cc(C)c(C(=O)OC[C@@H]2CCCN3CCCC[C@H]23)cc1C` [Compound 64], the IC50 on AChE [1] (setting [4]) amounted to 74.1 ± 6.8 µM.
For “[(1R,9aR)-octahydro-2H-quinolizin-1-yl]methane [Lupinine]”, the Cytotoxicity result in data set [2] was “no cytotoxicity”.
For the molecule `COc1cccc(/C=C/C(=O)OC[C@@H]2CCCN3CCCC[C@H]23)c1OC` [Compound 49], on AChE [1] (setting [4]), the IC50 came to 111 ± 12.5 µM.
On the same count and under the same terms, with `COc1ccccc1/C=C/C(=O)OC[C@@H]1CCCN2CCCC[C@H]12` [Compound 43] the figure was 89.6 ± 7.7 µM; with `CCOc1cc(C=O)ccc1OCc1cn(C[C@@H]2CCCN3CCCC[C@H]23)nn1` [Compound 7, 3-Ethoxy-4-((1-(((1S,9aR)-octahydro-1H-quinolizine-1-yl)methyl)-1H-1,2,3-triazole-4-yl)methoxy)benzaldehyde], 73.4 ± 16.7 µM.
In the case of `CC1(C)CC(=O)c2c(C(=O)OC[C@@H]3CCCN4CCCC[C@H]34)coc2C1` [Compound 25], on AChE [1], the “Observed class for AChE inhibitory activity” value is given as “Active”. At AChE [1] (setting [4]), the IC50 was determined as 24.4 ± 3.4 µM.
Turning to `COc1cc(/C=C/C(=O)NCCNc2cc(C)nc3ccccc23)ccc1OCc1ccccc1` [Compound C, (E)-3-(4-(benzyloxy)-3-methoxyphenyl)-N-(2-((2-methylquinolin-4-yl)amino)ethyl)acrylamide], at AChE [3], the IC50 is 0.6 µM.
Turning to `O=C1CC(C(=O)OC[C@@H]2CCCN3CCCC[C@H]23)C2(CCCCC2)O1` (some centres unmarked) [Compound 44], the IC50 on AChE [1] (setting [4]) stood at 68.9 ± 5.8 µM.
Take `CCc1cc(C(=O)OCc2cn(C[C@@H]3CCCN4CCCC[C@H]34)nn2)c(O)c(C(C)(C)C)c1` [Compound 16]: the IC50 on AChE [1] (setting [4]) worked out at 141 ± 15.3 µM.
Same read-out and setting: with `O=Cc1ccc(OCc2cn(C[C@@H]3CCCN4CCCC[C@H]34)nn2)cc1` [Compound 17] the figure was 68.1 ± 2.2 µM.
Take `COc1cc(-c2cn(C[C@@H]3CCCN4CCCC[C@H]34)nn2)ccc1OCc1ccccc1` [Compound 15, (1S,9aR)-1-((4-(4-(benzyloxy)-3-methoxyphenyl)-1H-1,2,3-triazol-1-yl)methyl)octahydro-2H-quinolizine]: the IC50 at AChE [1] (setting [4]) was found to be 7.2 µM. For the same molecule, the “Mechanism of AChE inhibition (Lineweaver–Burk plot)” value at AChE [1] (double-reciprocal Lineweaver–Burk plot) is given as “mixed type of inhibition; also recorded: mixed-type mechanism”.
Take `CCc1nnc(/N=C2\NC(=O)/C(=C\c3ccc(OCc4ccccc4)cc3)S2)s1` [Compound B, (E)-5-((E)-4-(benzyloxy)benzylidene)-2-((5-ethyl-1,3,4-thiadiazol-2-yl)imino)thiazolidin-4-one]: on AChE [3], the IC50 was 1.2 µM.
Regarding `O=C(CCCCl)OC[C@@H]1CCCN2CCCC[C@H]12` [Compound 22], at AChE [1], the IC50 is 39.5 ± 7.2 µM and the “Observed class for AChE inhibitory activity” value was “Active”.
In the case of `Cn1c(/C=N/Nc2ccc(OCc3ccccc3)cc2)nc2ccccc21` [Compound A, (E)-2-((2-(4-(benzyloxy)phenyl)hydrazineylidene)methyl)-1-methylbenzimidazole], the IC50 at AChE [3] was 11.8 µM.
Take `COc1cccc(-c2cn(C[C@@H]3CCCN4CCCC[C@H]34)nn2)c1` [Compound 13]: the IC50 at AChE [1] (setting [4]) came out at 51.8 ± 9.2 µM.
On to `Nc1nc(SCc2cn(C[C@@H]3CCCN4CCCC[C@H]34)nn2)n[nH]1` [Compound 5, 3-((1-(((1S,9aR)-Octahydro-1H-quinolizine-1-yl)methyl)-1H-1,2,3-triazole-4-yl)methylthio)-1H-1,2,4-triazole-5-amine], for which, at AChE [1] (setting [4]), the IC50 was 101 ± 23.9 µM.
